{"source": "ChEMBL document CHEMBL3822378", "about": "“Click-based synthesis and antitubercular evaluation of dibenzofuran tethered thiazolyl-1,2,3-triazolyl acetamides” (Bioorg Med Chem Lett, 2016)", "key": {"[1]": {"test_system": "Staphylococcus epidermidis", "assay": "Antibacterial activity against Staphylococcus epidermidis 2D866 by two-fold agar dilution method", "type": "functional"}, "[2]": {"test_system": "Mycobacterium tuberculosis", "assay": "Antitubercular activity against Mycobacterium tuberculosis H37Rv by microplate alamar blue assay", "type": "functional"}, "[3]": {"assay": "Cytotoxicity against mouse RAW264.7 cells assessed as growth inhibition at 50 ug/ml after 72 hrs by MTT assay", "type": "cell-based", "details": "read-out: GI"}, "[4]": {"test_system": "Mycobacterium tuberculosis", "assay": "Antitubercular activity against Mycobacterium tuberculosis H37Rv ATCC 27294 after 28 days by two-fold agar dilution method", "type": "functional", "details": "H37Rv ATCC 27294, 672 h"}}, "data": [{"smiles": "CCCCCC(=O)c1c(OC)c(Cl)c2oc3c(Cl)c(OC)c(Cl)c(O)c3c2c1O", "values": [{"measurement": "MIC", "setting": "[1]", "result": 0.39, "unit": "µg/mL"}]}, {"smiles": "CC(=O)C1=C(O)C=C2Oc3c(C(C)=O)c(O)c(C)c(O)c3C2(C)C1=O", "note": "(stereo not drawn)", "values": [{"measurement": "MIC", "setting": "[2]", "result": 12.5, "unit": "µg/mL"}]}, {"smiles": "O=C(Cn1cc(C2(O)CCCC2)nn1)Nc1nc(-c2ccc3oc4ccccc4c3c2)cs1", "values": [{"measurement": "inhibition at 72 h, 50 ug/ml", "setting": "[3]", "result": 22.2, "unit": "%"}, {"measurement": "MIC", "setting": "[4]", "result": 12.5, "unit": "µg/mL"}]}, {"smiles": "Cc1ccc(-c2cn(CC(=O)Nc3nc(-c4ccc5oc6ccccc6c5c4)cs3)nn2)cc1", "values": [{"measurement": "MIC", "setting": "[4]", "result": 50, "unit": "µg/mL"}]}, {"smiles": "O=C(Cn1cc(-c2cc(C(F)(F)F)cc(C(F)(F)F)c2)nn1)Nc1nc(-c2ccc3oc4ccccc4c3c2)cs1", "values": [{"measurement": "MIC", "setting": "[4]", "result": 25, "unit": "µg/mL"}]}, {"smiles": "CCCCCc1ccc(-c2cn(CC(=O)Nc3nc(-c4ccc5oc6ccccc6c5c4)cs3)nn2)cc1", "values": [{"measurement": "MIC", "setting": "[4]", "result": "> 50", "unit": "µg/mL"}]}, {"smiles": "O=C(Cn1cc(CCc2ccccc2)nn1)Nc1nc(-c2ccc3oc4ccccc4c3c2)cs1", "values": [{"measurement": "MIC", "setting": "[4]", "result": "> 50", "unit": "µg/mL"}]}, {"smiles": "O=C(Cn1cc(-c2ccccc2)nn1)Nc1nc(-c2ccc3oc4ccccc4c3c2)cs1", "values": [{"measurement": "inhibition at 72 h, 50 ug/ml", "setting": "[3]", "result": 20.4, "unit": "%"}, {"measurement": "MIC", "setting": "[4]", "result": 3.12, "unit": "µg/mL"}]}, {"smiles": "CCCc1cn(CC(=O)Nc2nc(-c3ccc4oc5ccccc5c4c3)cs2)nn1", "values": [{"measurement": "MIC", "setting": "[4]", "result": 50, "unit": "µg/mL"}]}, {"smiles": "COc1cccc(-c2cn(CC(=O)Nc3nc(-c4ccc5oc6ccccc6c5c4)cs3)nn2)c1", "values": [{"measurement": "inhibition at 72 h, 50 ug/ml", "setting": "[3]", "result": 18.1, "unit": "%"}, {"measurement": "MIC", "setting": "[4]", "result": 6.25, "unit": "µg/mL"}]}, {"smiles": "O=C(Cn1cc(-c2ccc(F)cc2F)nn1)Nc1nc(-c2ccc3oc4ccccc4c3c2)cs1", "values": [{"measurement": "MIC", "setting": "[4]", "result": 25, "unit": "µg/mL"}]}, {"smiles": "CCCCCCc1cn(CC(=O)Nc2nc(-c3ccc4oc5ccccc5c4c3)cs2)nn1", "values": [{"measurement": "inhibition at 72 h, 50 ug/ml", "setting": "[3]", "result": 28.6, "unit": "%"}, {"measurement": "MIC", "setting": "[4]", "result": 1.56, "unit": "µg/mL"}]}, {"smiles": "O=C(Cn1cc(C2CC2)nn1)Nc1nc(-c2ccc3oc4ccccc4c3c2)cs1", "values": [{"measurement": "MIC", "setting": "[4]", "result": 50, "unit": "µg/mL"}]}, {"smiles": "CC(C)(C)c1ccc(-c2cn(CC(=O)Nc3nc(-c4ccc5oc6ccccc6c5c4)cs3)nn2)cc1", "values": [{"measurement": "inhibition at 72 h, 50 ug/ml", "setting": "[3]", "result": 30.2, "unit": "%"}, {"measurement": "MIC", "setting": "[4]", "result": 12.5, "unit": "µg/mL"}]}, {"smiles": "CCCCCCCCCCCCc1cn(CC(=O)Nc2nc(-c3ccc4oc5ccccc5c4c3)cs2)nn1", "values": [{"measurement": "inhibition at 72 h, 50 ug/ml", "setting": "[3]", "result": 26.5, "unit": "%"}, {"measurement": "MIC", "setting": "[4]", "result": 3.12, "unit": "µg/mL"}]}, {"smiles": "O=C(Cn1cc(CCCO)nn1)Nc1nc(-c2ccc3oc4ccccc4c3c2)cs1", "values": [{"measurement": "MIC", "setting": "[4]", "result": 25, "unit": "µg/mL"}]}, {"smiles": "O=C(Cn1cc(-c2ccc(-c3ccccc3)cc2)nn1)Nc1nc(-c2ccc3oc4ccccc4c3c2)cs1", "values": [{"measurement": "MIC", "setting": "[4]", "result": "> 50", "unit": "µg/mL"}]}, {"smiles": "CCCCCc1cn(CC(=O)Nc2nc(-c3ccc4oc5ccccc5c4c3)cs2)nn1", "values": [{"measurement": "inhibition at 72 h, 50 ug/ml", "setting": "[3]", "result": 20.4, "unit": "%"}, {"measurement": "MIC", "setting": "[4]", "result": 12.5, "unit": "µg/mL"}]}, {"smiles": "CC[C@@H](CO)NCCN[C@@H](CC)CO", "note": "[ETHAMBUTOL]", "values": [{"measurement": "MIC", "setting": "[4]", "result": 3.13, "unit": "µg/mL"}]}, {"smiles": "NNC(=O)c1ccncc1", "note": "[ISONIAZID]", "values": [{"measurement": "MIC", "setting": "[4]", "result": 0.1, "unit": "µg/mL"}]}, {"smiles": "NC(=O)c1cnccn1", "note": "[PYRAZINAMIDE]", "values": [{"measurement": "MIC", "setting": "[4]", "result": 50, "unit": "µg/mL"}]}]}
